In patent US20060040884A1, “Antisense oligonucleotides directed to genes regulated by trapoxin-induced HDAC inhibition” (priority 2001, published 2006):
Values joined by “and” are separate entries in the source; they are usually repeats but may differ in a detail not shown here. Identical values can stand only once. Marks after values point to notes of the source that are not given here. Square brackets hold non-standard residues; d marks the D form. Peptide text beside a SMILES is read from it. ξ: configuration not given here. Aoe(9ξ) = N[C@@H](CCCCCC(=O)C1CO1)C(=O)O; dPip = O=C(O)[C@H]1CCCCN1

System: H1299 cells
Test: Microarray expression profiling of TPX- vs DMSO-treated H1299 cells (Affymetrix HU6800 and Incyte UniGem V arrays)
Format: cell-based, human
Details: 30 nM vs DMSO
Experimental: Cell Culture and Drug Treatments. […] H1299 cells at 60 to 80% confluence are treated with 30 nM TPX dissolved in dimethyl sulphoxide for a final concentration of 0.1% Me2SO in cell culture medium or 0.1% Me2SO for 0, 6, 12, and 18 h.
Incyte cDNA arrays. H1299 cells are treated with 30 nM TPX dissolved in Me2SO or Me2SO for 0, 6, 12 and 18 h. Final Me2SO concentrations were 0.1% in cell culture medium. Total RNA is extracted using TRIZOL reagent (Life Technologies, Rockville, Md.) and purified using RNAeasy reagents (Qiagen, Valencia Calif.). Poly (A)^+ RNA (mRNA) is prepared from total RNA using Oligotex columns (Qiagen, Valencia, Calif.) and the procedure is repeated twice to minimize contamination with ribosomal RNA. The mRNA concentrations are determined using RiboGreen RNA Quantitation kit (Molecular Probes, Eugene, Oreg.) and equal amounts of mRNA from each sample is used in labeling reactions that are performed by Synteni Division of Incyte Genomics, Inc. (Palo Alto, Calif.). Complementary DNAs are prepared by […] and labeled with Cy3-deoxyuridine triphosphate (Cy3) or Cy5-deoxyuridine triphosphate (Cy5) fluorescent nucleotides. cDNA samples from cells that are treated with Me2SO are labeled with Cy3 and the TPX-treated samples are labeled with Cy5. Replicates were labeled with reversed fluorescent labels to accommodate biases attributable to labeling. The Cy3 and Cy5 samples from each time point are combined and hybridized to UniGem […] arrays (Iyer, V. R., et al., (1999) Science 283, 83-87). This array contains cDNAs that represent approximately 7000 human genes.
Affymetrix oligonucleotide arrays. Total RNA and Poly (A)^+ RNA is isolated from TPX or Me2SO-treated H1299 cells essentially as it was for Incyte cDNA arrays. Total RNA is isolated from p21^waf1-10 cells that are grown in the presence or in the absence of tetracycline for 6, 12 and 48 h. 1st strand cDNA synthesis is performed using Superscript Choice System (Life Technologies) and a T7prFB-t30 primer, 5′-AAACGACGGCACA […]-t30-3′ (SEQ ID NO 1). Biotinylated complementary […] is made using the T7 Megascript system (Ambion, Austin, Tex.), substituting NTP labeling-mix containing biotinylated CTP and UTP. The labeled, purified cDNA is fragmented into <50 bp pieces at 95° C. in MgCl2 buffer to-increase the efficiency of hybridization to 20-mer oligos on the arrays. These labeled fragments are hybridized to HU6800 arrays (Affymetrix, Santa Clara, Calif.) as described previously (Lockhart, D. J., et al., (1996) Nat. Biotechnol. 14, 1675-1680; Alon, U. et al., (1999) Proc. Natl. Acad. Sci. U.S.A. 96, 6745-6750). This array represents approximately 7000 human genes. Briefly, samples are hybridized for 16 h at 45° C. with constant rotation at 60 rpm. The arrays are washed and stained using an Affymetrix fluidics station. The stain included streptavidin-phycoerythrin (10 μg/ml; Molecular Probes, Eugene, Oreg.) and biotinylated goat anti-streptavidin (3 μg/ml; Vector Laboratories, Burlingame, Calif.).
Imaging and Data Analysis. Affymetrix arrays are scanned with a HP argon-ion laser confocal microscope, with a 488 nm […] and detection at 570 nm. Affymetrix fold changes are calculated using GeneChip 3.3 software (Affymetrix). Incyte Pharmaceutical Inc. uses a laser confocal microscope to determine the fluorescence intensities from Incyte cDNA arrays. The fluorescent images (Cy3 and Cy5) from the Incyte cDNA arrays are normalized to total fluorescence from each channel for all genes for labeling efficiency differences and considered the normalized data is used for calculation of the gene expression ratios.

O=C(CCCCC[C@@H]1NC(=O)[C@H]2CCCCN2C(=O)[C@H](Cc2ccccc2)NC(=O)[C@H](Cc2ccccc2)NC1=O)C1CO1 (stereo partly drawn) [TPX, Trapoxin A] (cyclo(FF[dPip][Aoe(9ξ)]))
Fold change, D85429 Hsp 40 (12 h): 4.8^8 fold and 5.3^8 fold | Fold change, J03909 γ-IFN-inducible, IP-30 (12 h): 4.7^7 fold and 5.2^8 fold | Fold change, L03840 Fibroblast growth factor receptor (12 h): 3.2* fold and 4.9^1 fold | Fold change, L32976 Mixed lineage kinase-3 (12 h): −2.4* fold | Fold change, M12174 RhoB (12 h): 5.2^8 fold and 4.5^8 fold | Fold change, M16938 Homeobox C8 (12 h): NC (<2 fold change in expression level (NC)) | Fold change, M55153 Transglutaminase 2 (12 h): NC (<2 fold change in expression level (NC)) | Fold change, M59828 Hsp 70 (12 h): NC (<2 fold change in expression level (NC)) | Fold change, M76125 Tyrosine kinase receptor (TKR) axl (12 h): NC (<2 fold change in expression level (NC)) | Fold change, M80244 Human E16 (12 h): NC (<2 fold change in expression level (NC)) | Fold change, M86406 Actinin (12 h): 2.1 fold and 2.4 fold | Fold change, NM006603 Stromal antigen 2 (12 h): NC (<2 fold change in expression level (NC)) | Fold change, U03057 Actin-bundling protein (12 h): 2.4^7 fold and 2.0^7 fold | Fold change, U09578 MAKAP kinase (3 pk) (12 h): NC (<2 fold change in expression level (NC)) | Fold change, U09579 p21waf1 (1st line) (12 h): 10.5^8 fold and 7.0^8 fold | Fold change, U09579 p21waf1 (2nd line) (12 h): 3.4 fold and 3.6 fold | Fold change, U09937 Upa receptor (UpaR) (1st line) (12 h): NC (<2 fold change in expression level (NC)) | Fold change, U14750 Connective tissue growth factor (12 h): 5.6 fold and 3.5 fold | Fold change, U15782 Cleavage stimulation factor 3 (12 h): NC (<2 fold change in expression level (NC)) | Fold change, U25804 Caspase-4 (12 h): NC (<2 fold change in expression level (NC)) | Fold change, U30827 Srp40 (12 h): NC (<2 fold change in expression level (NC)) | Fold change, U31875 Hep27 (12 h): 11.2^8 fold and 12.3^8 fold | Fold change, U32519 GAP SH3 binding protein (12 h): 8.3^8 fold and 4.3^3 fold | Fold change, U48795 Cathelicidin antimicrobial peptide (12 h): 8.5 fold | Fold change, U56833 VBP-1 (12 h): NC (<2 fold change in expression level (NC)) | Fold change, U77413 O-linked-N-acetylglucosamine transferase (12 h): NC (<2 fold change in expression level (NC)) | Fold change, U84214 Defender against cell death 1 (12 h): 2.5 fold and 2.0 fold | Fold change, X03473 Histone H1 (0) [Chromatin remodeling] (12 h): 12.0^8 fold and 11.9^8 fold | Fold change, X03473 Histone H1 (0) [Differentiation] (12 h): 12.0^8 fold and 11.9^8 fold | Fold change, X04429 Plasminogen activator inhibitor 1 (12 h): NC (<2 fold change in expression level (NC)) | Fold change, X16396 NAD-dependent methylene teterahydrofolate dehydrogenase-methylenyltetrahydrofolate cyclohydrolase (12 h): NC (<2 fold change in expression level (NC)) | Fold change, X37547 Inhibitor of apoptisis homolog C (12 h): NC (<2 fold change in expression level (NC)) | Fold change, X53586 Integrin α-6 (12 h): NC (<2 fold change in expression level (NC)) | Fold change, X55740 5′-nucleotidase (12 h): NC (<2 fold change in expression level (NC)) | Fold change, X66029 TKR axl (12 h): NC (<2 fold change in expression level (NC)) | Fold change, X78687 G9 sialidase (12 h): 4.3^8 fold and 4.5^8 fold | Fold change, A1581499 Apoptosis inhibitor 2 (18 h): NC (<2 fold change in expression level (NC)) | Fold change, AB011146 KIAA0574, similar to an RNA binding protein (18 h): NC (<2 fold change in expression level (NC)) | Fold change, AF012086 RAN-binding protein 2-like (18 h): NC (<2 fold change in expression level (NC)) | Fold change, AF052578 RAN [Small GTP-ases] (18 h): 2.5 fold and 3.3 fold | Fold change, AF109161 p35srj [Stress] (18 h): 3.4 fold and 3.3 fold | Fold change, AF109161 p35srj [Transformation and TKRs] (18 h): 3.4 fold and 3.3 fold | Fold change, AL047358 Insulin-induced gene 1 (18 h): 2.0 fold and 2.9 fold | Fold change, AL047358 Spermidine/spermine N1-acetyltransferase (18 h): 2.3 fold and 3.4 fold | Fold change, D31764 Eph1B-like tyrosine kinase receptor (18 h): NC (<2 fold change in expression level (NC)) | Fold change, D50525 TI-227H (18 h): NC (<2 fold change in expression level (NC)) | Fold change, D85429 Hsp 40 (18 h): 17.1^8 fold and 15.6^8 fold | Fold change, J03909 γ-IFN-inducible, IP-30 (18 h): 17.1^8 fold and 15.6^8 fold | Fold change, L03840 Fibroblast growth factor receptor (18 h): 3.7 fold and 4.4 fold | Fold change, M12174 RhoB (18 h): 6.2^8 fold and 6.1^8 fold | Fold change, M55153 Transglutaminase 2 (18 h): 2.1 fold and 2.6 fold | Fold change, M58286 TNF Receptor (18 h): NC (<2 fold change in expression level (NC)) | Fold change, M59828 Hsp 70 (18 h): NC (<2 fold change in expression level (NC)) | Fold change, M80899 AHNAK nucleoprotein/desmoykin (18 h): NC (<2 fold change in expression level (NC)) | Fold change, M86406 Actinin (18 h): NC (<2 fold change in expression level (NC)) | Fold change, U03057 Actin-bundling protein (18 h): NC (<2 fold change in expression level (NC)) | Fold change, U09579 p21waf1 (1st line) (18 h): 3.8* fold and 4.0* fold | Fold change, U09579 p21waf1 (2nd line) (18 h): 2.7 fold and 3.1 fold | Fold change, U14750 Connective tissue growth factor (18 h): 3.6 fold and 4.5 fold | Fold change, U19261 Epstein-Barr-induced LMP1 (18 h): NC (<2 fold change in expression level (NC)) | Fold change, U28749 High mobility group phosphoprotein I-C (HMGI-C) (1st line) (18 h): NC (<2 fold change in expression level (NC)) | Fold change, U30827 Srp40 (18 h): NC (<2 fold change in expression level (NC)) | Fold change, U31875 Hep27 (18 h): 7.1^8 fold and 8.3^8 fold | Fold change, U32519 GAP SH3 binding protein (18 h): 4.6^8 fold and 4.2^8 fold | Fold change, U48795 Cathelicidin antimicrobial peptide (18 h): NC (<2 fold change in expression level (NC)) | Fold change, U68019 hMAD3 (18 h): NC (<2 fold change in expression level (NC)) | Fold change, U79285 Clone 23828 (18 h): NC (<2 fold change in expression level (NC)) | Fold change, U84214 Defender against cell death 1 (18 h): NC (<2 fold change in expression level (NC)) | Fold change, X03473 Histone H1 (0) [Chromatin remodeling] (18 h): 3.4* fold and 3.6* fold | Fold change, X03473 Histone H1 (0) [Differentiation] (18 h): 3.4* fold and 3.6* fold | Fold change, X37546 Inhibitor of apoptisis homolog B (18 h): NC (<2 fold change in expression level (NC)) | Fold change, X78687 G9 sialidase (18 h): 3.3^8 fold and 2.6^8 fold
